From paper PMC6451765 (Journal of biomolecular structure & dynamics, 2013)

Molecular target: 5-HT2B (Homo sapiens, UniProt P41595)
Type: binding

Sequence of 5-HT2B (P41595 whole entry): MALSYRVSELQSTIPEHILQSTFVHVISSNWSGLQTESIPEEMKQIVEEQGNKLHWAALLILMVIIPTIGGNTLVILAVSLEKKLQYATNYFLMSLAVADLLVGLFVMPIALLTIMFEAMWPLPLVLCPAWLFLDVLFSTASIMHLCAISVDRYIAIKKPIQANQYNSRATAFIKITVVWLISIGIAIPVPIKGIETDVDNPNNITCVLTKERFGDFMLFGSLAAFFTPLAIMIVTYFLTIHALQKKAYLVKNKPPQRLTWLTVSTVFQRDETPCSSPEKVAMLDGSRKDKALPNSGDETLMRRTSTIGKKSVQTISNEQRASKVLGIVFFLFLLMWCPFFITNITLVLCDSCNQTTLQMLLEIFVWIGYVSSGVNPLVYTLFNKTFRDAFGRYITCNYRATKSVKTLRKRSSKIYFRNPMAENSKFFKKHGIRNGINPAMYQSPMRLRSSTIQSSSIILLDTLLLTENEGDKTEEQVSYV

| SMILES | Ki |
| --- | --- |
| CC(C)c1cccc(C(C)C)c1O [P, propofol] | 0.95 µM |
| FC(F)OC(Cl)C(F)(F)F (centres unmarked) [I, isoflurane] | 7.78 µM |
